# Results reported in publication PMC12186255, “Discovery and Characterization of Small Molecule Inhibitors Targeting Exonuclease 1 for Homologous Recombination-Deficient Cancer Therapy” (ACS Chemical Biology, 2025).
# Columns and labels:
# MDA-MB-231 cells = assay: Gel-based phospho-RPA end resection assay; type: cell-based, human; details: inhibitor overnight then 2 μM CPT 2 h, C5 10 μM
# Method: The levels of RPA32 and phosphorylated RPA32 (S33) were analyzed by Western blotting using antibodies against RPA32 and phosphorylated RPA32 (S33). The total level of tubulin was used as a control. (b) Ratio of P-RPA:RPA levels calculated from panel a. […] U2OS cells carrying a GFP reporter for HR were infected with adenovirus expressing the I-SceI restriction enzyme. […] U2OS cells carrying a GFP reporter for HR were infected with adenovirus expressing the I-SceI restriction enzyme. […] For panels c and d, after 48 h, the cells were harvested, and the GFP-positive cells were analyzed by flow cytometry. Values are the mean ± S.D. of three independent experiments.
# The treated cells were then lysed in the SDS-PAGE sample buffer, and the lysate was separated by SDS-PAGE prior to immobilization on a nitrocellulose membrane and Western blotting. Antibodies against unphosphorylated RPA, S33-P-RPA2, and tubulin were subsequently assayed according to the manufacturer’s recommendations. The ratio of P-RPA/RPA levels were quantified via ImageJ.
# MDA-MB-468 = assay: Cell line drug profiling, CellTiter Glo; type: cell-based, human
# Method: (§1) We tested the cytotoxicity of representative compounds from the seven EXO1i scaffolds against a subset of the NCI-60 cell line panel along with three additional pancreatic cell lines (FG, AsPC1, and CaPan2). In general, cells were seeded in 384-well tissue culture-treated plates overnight and treated with various concentrations of each hit compound (a serial 3-fold dilution from 50 μM for all tested hits). Each concentration was performed in duplicate. Cell viability was then measured by CellTiter Glo (Promega) after 72 h of treatment.
# SF-295 = assay: Cell line drug profiling, CellTiter Glo; type: cell-based, human
# Method: as §1
# FEN1 = target: T1, FEN1 (Homo sapiens, UniProt P39748); assay: Analogous FRET-based counter screen with purified FEN1; type: biochemical; details: FRET-based assay, maximum inhibitor concentration 100 μM
# T1 construct: made in house
# T1 sequence (P39748 whole entry): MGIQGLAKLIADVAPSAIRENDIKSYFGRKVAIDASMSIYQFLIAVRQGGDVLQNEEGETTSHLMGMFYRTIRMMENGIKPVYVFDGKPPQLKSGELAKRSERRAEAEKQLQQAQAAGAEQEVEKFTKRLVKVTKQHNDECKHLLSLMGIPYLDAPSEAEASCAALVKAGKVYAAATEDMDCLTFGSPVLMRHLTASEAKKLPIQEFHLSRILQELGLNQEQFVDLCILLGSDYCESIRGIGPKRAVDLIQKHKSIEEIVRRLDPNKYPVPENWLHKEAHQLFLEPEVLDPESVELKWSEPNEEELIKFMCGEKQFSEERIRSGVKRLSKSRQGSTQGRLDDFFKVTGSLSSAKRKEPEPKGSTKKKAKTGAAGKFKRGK
# Method: Data were normalized by subtracting the relative fluorescence unit (RFU) of the blank sample from that of each EXO1-containing reaction. The relative activity of individual compounds was subsequently calculated by setting the corrected RFU of EXO1 with DMSO as 100% and comparing the corrected RFU for each condition to the DMSO value. Each assay was performed by sequentially adding experimental compounds, the EXO1 enzyme, and the DNA substrate to minimize starting differences. […] Following IC50 screening, an analogous FRET-based assay was performed using purified FEN1 to assess the EXO1 specificity of each compound.
# For subsequent hit confirmation, 84 compounds from the primary screen were picked from our internal stock and subjected to a dose-dependent response assay starting at 100 μM with 3-fold serial dilution. To analyze the data from the dose-dependent response assay, IC50 values for each hit were calculated through nonlinear regression analysis using GraphPad Prism 10 (GraphPad Software, Inc.). […] Subsequently, a counter screen was performed to eliminate potential false-positive hits. To accomplish this, we established an analogous FRET assay using the purified FEN1 enzyme in place of EXO1.
# SK-MEL-28 = assay: Cell line drug profiling, CellTiter Glo; type: cell-based; details: Homo sapiens; SK-MEL-28, Melanoma, 72 h
# Method: as §1
# SNB-19 = assay: Cell line drug profiling, CellTiter Glo; type: cell-based; details: Homo sapiens; SNB-19, Central Nervous System, 72 h
# Method: as §1
# NCI/ADR-RES = assay: Cell line drug profiling, CellTiter Glo; type: cell-based; details: Homo sapiens, Ovarian, 72 h
# Method: as §1
# PC3 = assay: Cell line drug profiling, CellTiter Glo; type: cell-based; details: Homo sapiens, PC-3; PC3, Prostate, 72 h
# Method: as §1
# BT549 = assay: Cell line drug profiling, CellTiter Glo; type: cell-based; details: Homo sapiens, BT-549; BT549, Breast, 72 h
# Method: as §1
# UO-31 = assay: Cell line drug profiling, CellTiter Glo; type: cell-based; details: Homo sapiens; UO-31, Kidney, 72 h
# Method: as §1
# SKOV-3 = assay: Cell line drug profiling, CellTiter Glo; type: cell-based; details: Homo sapiens, SK-OV-3; SKOV-3, Ovarian, 72 h
# Method: as §1
# CCRF-CEM = assay: Cell line drug profiling, CellTiter Glo; type: cell-based; details: Homo sapiens, Leukemia, 72 h
# Method: as §1
# T-47D = assay: Cell line drug profiling, CellTiter Glo; type: cell-based; details: Homo sapiens, T47D, Breast, 72 h
# Method: as §1
# OVCAR-3 = assay: Cell line drug profiling, CellTiter Glo; type: cell-based; details: Homo sapiens; OVCAR-3, Ovarian, 72 h
# Method: as §1
# MCF7 = assay: Cell line drug profiling, CellTiter Glo; type: cell-based; details: Homo sapiens; MCF7, Breast, 72 h
# Method: as §1
# IGR-OV1 = assay: Cell line drug profiling, CellTiter Glo; type: cell-based; details: Homo sapiens, IGROV-1; IGR-OV1, Ovarian, 72 h
# Method: as §1
# SF-268 = assay: Cell line drug profiling, CellTiter Glo; type: cell-based; details: Homo sapiens; SF-268, Central Nervous System, 72 h
# Method: as §1
# HS 578T = assay: Cell line drug profiling, CellTiter Glo; type: cell-based; details: Homo sapiens, Breast, 72 h
# Method: as §1
# FG = assay: Cell line drug profiling, CellTiter Glo; type: cell-based; details: Homo sapiens, Pancreatic, 72 h
# Method: as §1
# HL-60(TB) = assay: Cell line drug profiling, CellTiter Glo; type: cell-based; details: Homo sapiens, Leukemia, 72 h
# Method: as §1
# ACHN = assay: Cell line drug profiling, CellTiter Glo; type: cell-based; details: Homo sapiens, Kidney, 72 h
# Method: as §1
# OVCAR-4 = assay: Cell line drug profiling, CellTiter Glo; type: cell-based; details: Homo sapiens; OVCAR-4, Ovarian, 72 h
# Method: as §1
# DU145 = assay: Cell line drug profiling, CellTiter Glo; type: cell-based; details: Homo sapiens, DU-145; DU145, Prostate, 72 h
# Method: as §1
# AsPC1 = assay: Cell line drug profiling, CellTiter Glo; type: cell-based; details: Homo sapiens; AsPC1, Pancreatic, 72 h
# Method: as §1
# UACC-257 = assay: Cell line drug profiling, CellTiter Glo; type: cell-based; details: Homo sapiens; UACC-257, Melanoma, 72 h
# Method: as §1
# DU145 (B3) = assay: Cell line drug profiling, CellTiter Glo; type: cell-based; details: Homo sapiens, DU-145, Prostate, 72 h
# Method: as §1
# CaPan2 = assay: Cell line drug profiling, CellTiter Glo; type: cell-based; details: Homo sapiens, Capan-2; CaPan2, Pancreatic, 72 h
# Method: as §1
# OVCAR-8 = assay: Cell line drug profiling, CellTiter Glo; type: cell-based; details: Homo sapiens; OVCAR-8, Ovarian, 72 h
# Method: as §1
# H23 = assay: Cell line drug profiling, CellTiter Glo; type: cell-based; details: Homo sapiens, NCI-H23; H23, Lung, 72 h
# Method: as §1
# U251 = assay: Cell line drug profiling, CellTiter Glo; type: cell-based; details: Homo sapiens, U-251; U251, Central Nervous System, 72 h
# Method: as §1
# OVCAR-5 = assay: Cell line drug profiling, CellTiter Glo; type: cell-based; details: Homo sapiens; OVCAR-5, Ovarian, 72 h
# Method: as §1
# MCF7 (B3) = assay: Cell line drug profiling, CellTiter Glo; type: cell-based; details: Homo sapiens, Breast, 72 h
# Method: as §1
# MDA-MB-231 = assay: Cell line drug profiling, CellTiter Glo; type: cell-based; details: Homo sapiens; MDA-MB-231, Breast, 72 h
# Method: as §1
# EXO1 [1] = target: T2, EXO1 (Homo sapiens, UniProt Q9UQ84); assay: FRET-based EXO1 exonuclease activity assay, dose-response; type: biochemical; details: nick substrate, 30 min, 37 °C
# T2 construct: made in house
# T2 sequence (Q9UQ84 1-846): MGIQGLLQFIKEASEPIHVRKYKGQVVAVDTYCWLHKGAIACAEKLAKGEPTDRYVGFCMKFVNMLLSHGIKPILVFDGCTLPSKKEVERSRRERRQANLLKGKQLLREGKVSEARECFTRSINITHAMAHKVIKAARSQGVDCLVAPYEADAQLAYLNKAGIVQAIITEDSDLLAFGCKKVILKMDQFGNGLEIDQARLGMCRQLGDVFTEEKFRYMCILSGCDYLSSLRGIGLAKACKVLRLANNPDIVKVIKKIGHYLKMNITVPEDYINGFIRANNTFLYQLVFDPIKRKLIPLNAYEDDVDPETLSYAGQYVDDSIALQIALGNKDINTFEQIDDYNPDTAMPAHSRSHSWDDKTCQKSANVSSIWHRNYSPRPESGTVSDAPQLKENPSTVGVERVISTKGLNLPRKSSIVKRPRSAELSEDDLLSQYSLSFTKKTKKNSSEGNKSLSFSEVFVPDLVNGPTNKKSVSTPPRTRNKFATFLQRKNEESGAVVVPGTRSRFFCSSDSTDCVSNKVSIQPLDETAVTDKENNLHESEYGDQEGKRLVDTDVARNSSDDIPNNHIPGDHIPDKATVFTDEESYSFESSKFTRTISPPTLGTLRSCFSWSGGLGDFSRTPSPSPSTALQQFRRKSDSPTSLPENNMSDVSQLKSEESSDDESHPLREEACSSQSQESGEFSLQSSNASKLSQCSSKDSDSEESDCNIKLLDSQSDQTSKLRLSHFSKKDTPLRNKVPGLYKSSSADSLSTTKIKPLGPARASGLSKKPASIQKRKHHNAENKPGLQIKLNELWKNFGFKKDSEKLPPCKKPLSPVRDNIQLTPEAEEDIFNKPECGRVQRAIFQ
# Text: We developed a cell-free in vitro assay to detect EXO1 exonuclease activity based on FRET quenching. […] A ZEN quencher and IowaBlackFQ quencher were attached to the downstream oligo internally and at the 3' end, respectively, to suppress FAM signal. Two quenchers were used to provide better quenching effects than did a single quencher, as recommended by the manufacturer (IDT). The sequence of the nick substrate was as follows: up-primer: [NT]; template: [NT]; and probe: […] . When EXO1 cleaved the nick substrate, the FAM-labeled nucleotide was untethered from the substrate and yielded a bright green fluorescence. […] Fluorescent signals were measured after a 30 min incubation. […] Data were normalized by subtracting the relative fluorescence unit (RFU) of the blank sample from that of each EXO1-containing reaction. The relative activity of individual compounds was subsequently calculated by setting the corrected RFU of EXO1 with DMSO as 100% and comparing the corrected RFU for each condition to the DMSO value. Each assay was performed by sequentially adding experimental compounds, the EXO1 enzyme, and the DNA substrate to minimize starting differences.
# EXO1 [2] = target: T2, EXO1; assay: Thermal shift assay; type: binding; details: maximum shift in Tm of EXO1 vs DMSO, increasing inhibitor concentrations
# Method: To assess for changes in the thermal stability of EXO1 protein in response to treatment with candidate small molecule inhibitors or DMSO (vehicle control), the thermal shift assay (Applied Biosystems Protein Thermal Shift Dye Kit, Cat. #4461146) was utilized. The protein melt reaction mix consisted of freshly prepared 10× thermal shift dye, purified EXO1 enzyme (1 μg/uL), thermal shift buffer, DMSO or inhibitors, and sterilized Milli-Q water. A drug-free supermix was premade and dispensed in 96-well PCR plates followed by the addition of DMSO or inhibitors with increasing concentration. The reaction plate was heated from 10 to 98 °C at a rate of 0.5° per 10 s cycle, and the fluorescence intensity of individual wells was measured at 490/530 nm using a BioRad CFX96 Touch Real-Time PCR System. The fluorescence measurements of three technical replicates per treatment condition were then averaged to calculate melting temperature shift (ΔT m) as a readout for compound binding affinity.
smiles,measurement,setting,value
"O=C(O)c1c[nH]c2c([N+](=O)[O-])cccc2c1=O [C5, reference compound]",CPT-induced P-RPA levels (DNA end resection),MDA-MB-231 cells,significant reduction
O=C(Nc1ccc(N2CCC(Cc3ccccc3)CC2)cc1C(=O)O)c1ccccc1Cl [F685],IC50,"MDA-MB-468; Homo sapiens, MDA-MB-468, 72 h",46.4 µM
same,IC50,"SF-295; Homo sapiens, SF-295, 72 h",28.2 µM
same,IC50,FEN1,> 100 µM
same,IC50,SK-MEL-28,47.1 µM
same,IC50,SNB-19,16.6 µM
same,IC50,NCI/ADR-RES,17.7 µM
same,IC50,PC3,19.7 µM
same,IC50,BT549,17.9 µM
same,IC50,UO-31,8.27 µM
same,IC50,SKOV-3,24.4 µM
same,IC50,CCRF-CEM,14.8 µM
same,IC50,T-47D,16.9 µM
same,IC50,OVCAR-3,5.73 µM
same,IC50,MCF7,43.5 µM
same,IC50,IGR-OV1,18.1 µM
same,IC50,SF-268,49.3 µM
same,IC50,HS 578T,22.9 µM
same,IC50,FG,> 50 µM
same,IC50,HL-60(TB),17.5 µM
same,IC50,ACHN,19.9 µM
same,IC50,OVCAR-4,21.4 µM
same,IC50,DU145,12.6 µM
same,IC50,AsPC1,43.3 µM
same,IC50,UACC-257,21.5 µM
same,IC50,DU145 (B3),14.1 µM
same,IC50,CaPan2,44.7 µM
same,IC50,OVCAR-8,18.8 µM
same,IC50,H23,23.5 µM
same,IC50,U251,14.2 µM
same,IC50,OVCAR-5,19.4 µM
same,IC50,MCF7 (B3),37.3 µM
same,IC50,MDA-MB-231,31.6 µM
Cc1c(Cl)cccc1NCc1cc(=O)n2nc(-c3ccc(C(C)(C)C)cc3)nc2[nH]1 [D351],IC50,FEN1,> 100 µM
same,IC50,EXO1 [1],8 µM
O=S(=O)(Nc1nc2n(n1)C(c1ccc(F)cc1)C=C(c1ccccc1)N2)c1ccc(Cl)cc1 (stereo not shown) [D413-0213],IC50,"MDA-MB-468; MDA-MB-468, Breast, 72 h",20 µM
same,IC50,"SF-295; SF-295, Central Nervous System, 72 h",40 µM
O=S(=O)(Nc1nc2n(n1)C(c1ccccc1)C=C(c1ccc(Cl)cc1)N2)c1ccc(Cl)cc1 (stereo not shown) [D413],IC50,FEN1,> 100 µM
Cc1ccccc1C(=O)Nc1ccc(N2CCN(c3ccccc3Cl)CC2)c(C(=O)O)c1 [G889],IC50,FEN1,> 100 µM
same,ΔT m,EXO1 [2],~1 °C
